Reference: ChEMBL document CHEMBL5360524 (Bioorg Med Chem, 2022)

Experiments:
Serratia marcescens [1] = assay: Antibacterial activity against Serratia marcescens assessed as inhibition of bacterial growth measured after 96 hrs relative to control; assay type: functional
Serratia marcescens [2] = assay: Antibacterial activity against Serratia marcescens assessed as inhibition of bacterial growth measured after 168 hrs relative to control; assay type: functional

## COc1cc(C=O)ccc1O [VANILLIN]
Serratia marcescens [1]
  inhibition (INH): 0.3%
Serratia marcescens [2]
  inhibition (INH): 0.4%
